Laboratory results reported in paper PMC5367033, “Inhibitors of BRD4 Protein from a Marine-Derived Fungus Alternaria sp. NH-F6” (Marine Drugs, 2017).

Target: T1, BRD4 (Homo sapiens, UniProt O60885)
T1 construct: His-tagged BRD4-BD1 (bromodomain 1)
Assay: TR-FRET (HTRF) displacement of biotin-labeled peptide ligand from BRD4-BD1; single dose, […]
Format: biochemical
Conditions: read-out: Inhibition Rate / 10 μM

Structure (SMILES) | inhibition at 10 µM [%]
O=C1CC[C@]2(O)c3c(ccc(O)c31)-c1ccc(O)c3c1C2[C@@H](O)[C@@H](Cl)[C@H]3O (stereo partly drawn) [compound 1, 12β-Chloro-3,9α,11β,13β,16-pentahydroxy-8,9,10,11,12,13-hexahydro-6(7H)-one] | 57.7
O=C1C=Cc2c3c4c(c(O)ccc4c4ccc(O)c1c24)[C@H](O)[C@H](O)[C@H]3O [compound 2, 3,11α,12β,13β,16-Pentahydroxy-11,12-dihydroperylen-6(13H)-one] | 88.1
